Reference: patent publication US7098195B2, “Fluorinated glucosamine analogs useful for modulating post-translational glycosylations on cells” (Health Research, Inc., priority 2001, dated 2006)
Read-outs that look alike come from different tables or passages of the source.

Experiments:
[1] = tested on: HECA-452 epitopes on PSGL-1; experiment: Western blot of HECA-452 epitopes on PSGL-1 of CLA+ T-cells; type: cell-based, human
Experimental: For analysis of CLA expression on T-cells treated with glycoconjugate modifiers, CLA^+ T-cells were first pretreated with neuraminidase (0.1 U/ml at 37° C. for 1 h) to eliminate functional CLA and cleave all HECA-452 reactive epitopes from the cell surface (35–38). Since we wanted to investigate whether these compounds directly affected CLA expression and function, neuraminidase pretreatment followed by incubations with glycosylation modifiers allowed for examination of de novo synthesized CLA/HECA-452 epitopes re-expressed on the cell surface. After neuraminidase digestion, cells were then incubated with tunicamycin (0.02 mM) (an inhibitor of GlcNAc phosphotransferase, the initial step of N-glycosylation), swainsonine (0.23 mM) (an inhibitor of α-mannosidase II and complex-type N-glycosylation), 4-F-GlcNAc (0.05 mM) (putative inhibitor of poly-N-acetyllactosamine biosynthesis), BAG (an inhibitor of O-glycan biosynthesis) (<2 mM) or GlcNAc (5 mM) (negative control, naturally-occurring metabolic counterpart of 4-F-GlcNAc)for 30 h in the presence of human recombinant IL-2. […] Concentrations for BAG were selected based on maximal O-glycosylation inhibitory effects at non-growth inhibitory concentrations as previously reported (39). To determine a suitable concentration of 4-F-GlcNAc for examining glycoconjugate-modifying effects without influencing cell growth or protein synthesis, we performed preliminary growth inhibitory experiments of cells incubated with 4-F-GlcNAc for 2 cell doublings (˜36 h) at 37° C. (cell viability assessed by Trypan-blue exclusion).
For lysate preparation, cells (including radiolabeled cells) were washed 3× in ice cold PBS and lysed in buffer containing 150 mM NaCl, 50 mM Tris-HCl pH 7.4, 1 mM EDTA, 0.02% NaAzide, 20 μg/ml PMSF, Complete™ protease inhibitors cocktail tablets (Roche Molecular Biochemicals) and 2% NP-40 (250 μl/10^8 cells). Following 2 h incubation on ice, insoluble cellular debris was pelleted by centrifugation for 30 min at 10,000×g at 4° C. and solubilized protein lysate was collected and quantified by Bradford protein assay (Sigma Chemical). SDS was added to a final concentration of 1% in lysate preparations utilized for immunoprecipitation experiments.
For SDS-PAGE and Western blotting, cell lysates, membrane proteins or immunoprecipitates were diluted and boiled in reducing sample buffer, and separated on 7–9% SDS-PAGE gels. Resolved protein was transferred to Sequi-blot™ PVDF membrane (Bio-Rad, Inc., Hercules, Calif.) and blocked with FBS for 1 hr at RT. Blots were incubated with rat IgM anti-human CLA HECA-452 (1 μg/ml), mouse IgG anti-human PSGL-1 moAbs PL-2 (1 μg/ml), 203, 4F9 and 4D8 (1 μg each/ml), or mouse IgG anti-human CD43 L60 (1 μg/ml) for 1 hr at RT. Isotype control immunoblots using either rat IgM or mouse IgG were performed in parallel to evaluate non-specific reactive proteins. After three washes with PBS/0.1%Tween-20 (10 min/wash), blots were incubated with the respective secondary Ab, AP-conjugated goat anti-rat IgM (1:400) or goat anti-mouse IgG (1:8000). AP substrate, Western Blue® (Promega, Madison, Wis.) was then added to develop blots.
Cells were then re-cultured in the presence of glycosylation inhibitor, diluent control (PBS) or molecular control (GlcNAc) for 30 hr and then harvested for CLA expression and functional analysis. […] To assess the duration of anti-carbohydrate effects on HECA-452 expression on PSGL-1, cells treated with 4-F-GlcNAc for 30 h and were then re-cultured in non-4-F-GlcNAc-containing medium for 72 h.

[2] = tested on: P-selectin ligand activity of murine Th1 cells; experiment: Flow chamber analysis of P-selectin binding on murine Th1 cells; type: cell-based, mouse
Text: (§1) CD4+ splenocytes were isolated from C57BL-6 mice by anti-murine CD4 L3T4 magnetic bead technology (Miltenyi Biotec) according to manufacturer's protocol. […] Culturing murine T helper cells in the presence of murine IL-12 and anti-murine IL-4 produces selectin binding Th1 cells by up-regulating FucTVII (69, 70) and core 2 enzyme (43–45, 71, 72), both critical for selectin ligand synthesis (i.e. decoration of PSGL-1 (67, 68)), and prevents the production of non-selectin binding Th2 cells (67–72). Th1 cells were also generated from mice deficient in α1,3 fucosyltransferase, FucTVII, and served as negative controls (33, 38, 40). Cells were harvested and re-plated at 2×10^6cells/ml on non-Ab coated plastic with murine IL-2 (20 ng/ml) in the presence or absence of murine IL-12 (10 ng/ml) and anti-murine IL-4 moAb 11B11 (10 μg/ml) for 48 h. […] Glycosylation inhibitors were added to cultures on day 6.5 for 30 hr, after first treating cells with neuraminidase (0.1 U/ml for 1 hr at 37° C.) to remove all cell surface terminal sialic acid resides and E and P-selectin ligand activity. Since selectin ligands are dependent on terminal sialic acid (α2,3 N-acetylneuraminic acid) for activity, this approach allowed for analysis of de novo synthesized selectin ligands in the presence of 0.05 mM 4-F-GlcNAc, N-glycan inhibitors, 0.23 mM swainsonine and 0.02 mM tunicamycin, and 1 mM GlcNAc (negative control).

[3] = tested on: E-selectin ligand activity of murine Th1 cells; experiment: Flow chamber analysis of E-selectin binding on murine Th1 cells; type: cell-based, mouse
Text: as §1

[4] = 30 h after neuraminidase, tunicamycin 0.02 mM, swainsonine 0.23 mM, 4-F-GlcNAc 0.05 mM, BAG 2.0 mM, GlcNAc 5.0 mM
[5] = 30 hr after neuraminidase, 0.05 mM 4-F-GlcNAc, 0.23 mM swainsonine, 0.02 mM tunicamycin, 1 mM GlcNAc

Row | Compound | potency at lowering HECA-452 expression relative to BAG, on a molar basis [1] | de novo synthesized HECA-452 epitopes on PSGL-1 (Western blot) [1, 4] | duration of suppression of HECA-452 expression on PSGL-1 after removal of drug ([1]; treated for 30 h then re-cultured in non-4-F-GlcNAc-containing medium for 72 h) [h] | recovery of P-selectin ligand activity of Th1 cells [2, 5] | recovery of E-selectin ligand activity of Th1 cells [3, 5] | de novo synthesized HECA-452 epitopes on PSGL-1 (Western blot) [1] | recovery of P-selectin ligand activity of Th1 cells [2] | recovery of E-selectin ligand activity of Th1 cells [3] | potency at lowering HECA-452 expression relative to 4-F-GlcNAc, on a molar basis [1] [fold] | effects on HECA-452 expression ([1]; below 0.015 mM, preliminary, data not shown)
1 | CC(=O)N[C@H]1C(OC(C)=O)O[C@H](COC(C)=O)[C@@H](F)[C@@H]1OC(C)=O (stereo partly drawn) [4-F-GlcNAc, 2-acetamido-2-deoxy-1,3,6-tri-O-acetyl-4-deoxy-4-fluoro-D-glucopyranose] | more potent than BAG | marked reduction | 48 | completely inhibited | completely inhibited |  |  |  |  | 
2 | CC(=O)N[C@H]1C(O)O[C@H](CO)[C@@H](O)[C@@H]1O (stereo partly shown) [GlcNAc, N-acetylglucosamine] |  | not affected |  | no effect | no effect |  |  |  |  | 
3 | O[C@H]1[C@H]2[C@H](O)CCCN2C[C@H]1O [swainsonine] |  |  |  |  |  | not affected | no effect | no effect |  | 
4 | tunicamycin |  |  |  |  |  | marked reduction | completely inhibited | completely inhibited | 2.5 | minimal effects
